# From ChEMBL document CHEMBL4177612, “Discovery of tranylcypromine analogs with an acylhydrazone substituent as LSD1 inactivators: Design, synthesis and their biological evaluation” (Bioorg Med Chem Lett, 2017)
# The source made the active and inactive calls. No cut-off for these calls is given here.
# Assays:
# Format in all cases: functional, cell-based
# MGC-803 [1] = experiment: Antiinvasive activity against human MGC803 cells at 0.25 to 1 uM after 24 hrs by DAPI staining based matrigel coated transwell assay
# MGC-803 [2] = experiment: Anti-migratory activity against human MGC803 cells after 24 hrs by DAPI staining based transwell assay
# MGC-803 [3] = experiment: Effect on LSD1 level in human MGC803 cells at 1 to 4 uM after 4 days by immunofluorescence analysis
structure (smiles),measurement,setting,value
CCN(CC)c1ccc(/C=N/NC(=O)CN[C@@H]2C[C@H]2c2ccc(F)c(F)c2)c(O)c1,Activity,MGC-803 [1],Active
same,Activity,MGC-803 [2],Dose-dependent effect
same,Activity,MGC-803 [3],inactive
